These results are taken from patent publication US20170253581A1, “SUBSTITUTED HETEROCYCLES AS c-MYC TARGETING AGENTS” (Northwestern University, priority 2016, published 2017).

In the assay the target is Myc/Max binding to DNA (Homo sapiens, UniProt P01106). The assay can be described thus: Electrophoretic mobility shift assay (EMSA) of Myc/Max binding to DNA. In kind it is biochemical. Conditions: EMSA; for remaining activity at 50 µM: read-out: Bound DNA (%) (50uM); for remaining activity at 100 µM / Bound DNA (%) (100uM): 100 uM test compound; for remaining activity at 100 µM: read-out: Bound DNA (%) (100uM). In short, it runs like this: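 Electrophoretic mobility shift assay of Myc/Max binding to DNA. Compounds tested at 200 μM, 100 μM and 50 μM.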
Sequence of Myc/Max binding to DNA (P01106 whole entry): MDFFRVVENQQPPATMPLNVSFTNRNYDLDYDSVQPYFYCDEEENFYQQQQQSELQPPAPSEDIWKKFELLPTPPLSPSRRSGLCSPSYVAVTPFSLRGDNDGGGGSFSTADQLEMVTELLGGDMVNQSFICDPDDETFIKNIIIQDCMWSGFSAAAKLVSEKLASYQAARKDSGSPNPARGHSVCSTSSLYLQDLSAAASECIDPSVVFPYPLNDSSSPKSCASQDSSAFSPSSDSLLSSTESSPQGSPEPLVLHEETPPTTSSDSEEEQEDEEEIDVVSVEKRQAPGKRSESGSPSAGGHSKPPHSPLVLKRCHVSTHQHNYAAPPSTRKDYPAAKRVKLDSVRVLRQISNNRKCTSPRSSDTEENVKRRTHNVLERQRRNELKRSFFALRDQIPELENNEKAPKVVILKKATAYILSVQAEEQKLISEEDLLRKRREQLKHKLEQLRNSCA

Each structure is given as a SMILES string.

Consider `Nc1nc(-c2ccc(OCc3ccc(Cl)cc3)cc2O)cc(C(F)(F)F)n1` [compound 0200502], for which the remaining activity at 100 µM is 94%. In addition, where the note is “50 uM test compound”, the remaining activity at 50 µM amounted to 64%.
The corresponding values for `Oc1cc(OCc2ccc(Cl)cc2)ccc1-c1cc(C(F)(F)F)nc(-c2ccc(F)cc2)n1` [compound 0200503] are 91% and 89%.
For `N#Cc1cccc(-c2c(-c3ccc(OCc4ccc(Cl)cc4)cc3O)n[nH]c2C(N)=O)c1` [compound 0200557] the same measures were 53% and 46%.
Turning to `Cn1nc(-c2ccc(OCc3ccc(Cl)cc3)cc2O)c(-c2cccc(C#N)c2)c1C(N)=O` [compound 0200558], the remaining activity at 100 µM worked out at 9%. Besides, the remaining activity at 50 µM (50 uM test compound) was found to be 20%.
Regarding `Oc1cc(Nc2ccc(F)c(F)c2)ccc1-c1cc(C(F)(F)F)[nH]n1` [compound 0200559], the remaining activity at 100 µM turned out to be 39%. Besides, the remaining activity at 50 µM (50 uM test compound) turned out to be 76%.
As for `Cn1nc(-c2ccc(Nc3ccc(F)c(F)c3)cc2O)cc1C(F)(F)F` [compound 0200560], the remaining activity at 100 µM came to 56%. For the same compound, the remaining activity at 50 µM (50 uM test compound) was 91%.
As to `Oc1cc(Nc2ccc3c(c2)OCO3)ccc1-c1cc(C(F)(F)F)[nH]n1` [compound 0200561], the remaining activity at 100 µM was 59%. The remaining activity at 50 µM (50 uM test compound) came to 91%.
`Cn1nc(-c2ccc(Nc3ccc4c(c3)OCO4)cc2O)cc1C(F)(F)F` [compound 0200562]: the remaining activity at 100 µM came to 77%. Moreover, the remaining activity at 50 µM (50 uM test compound) was found to be 101%.
`NC(=O)c1ccc(Nc2ccc(-c3cc(C(F)(F)F)[nH]n3)c(O)c2)cc1` [compound 0200563]: the remaining activity at 100 µM worked out at 92%. For the same compound, under “50 uM test compound”, the remaining activity at 50 µM was found to be 101%.
Regarding `Cn1nc(-c2ccc(Nc3ccc(C(N)=O)cc3)cc2O)cc1C(F)(F)F` [compound 0200564], the remaining activity at 100 µM is 93%. Also, the remaining activity at 50 µM (50 uM test compound) is 103%.
The corresponding values for `Oc1cc(Nc2ccccn2)ccc1-c1cc(C(F)(F)F)[nH]n1` [compound 0200565] are 112% and 112%.
As to `Cn1nc(-c2ccc(Nc3ccccn3)cc2O)cc1C(F)(F)F` [compound 0200566], the remaining activity at 100 µM was found to be 118%. Also, the remaining activity at 50 µM (50 uM test compound) was 109%.
Take `CN1CCN(c2ccc(-c3cc(C(F)(F)F)[nH]n3)c(O)c2)CC1` [compound 0200567]: the remaining activity at 100 µM is 115%. Moreover, the remaining activity at 50 µM (50 uM test compound) was 117%.
Regarding `CN1CCN(c2ccc(-c3cc(C(F)(F)F)n(C)n3)c(O)c2)CC1` [compound 0200568], the remaining activity at 100 µM was found to be 93%. Further, the remaining activity at 50 µM (50 uM test compound) is 109%.
As to `Oc1cc(Nc2ccc(-n3ccnc3)cc2)ccc1-c1cc(C(F)(F)F)[nH]n1` [compound 0200569], the remaining activity at 100 µM is 91%. The remaining activity at 50 µM (50 uM test compound) was 89%.
For `Oc1cccc(OCc2ccc(Cl)cc2)c1-c1cc(C(F)(F)F)n[nH]1` [compound 0200570], the remaining activity at 100 µM is 83%. For the setting “50 uM test compound”, the remaining activity at 50 µM was determined as 85%.
With `N#Cc1cccc(-c2c(C(F)(F)F)n[nH]c2-c2cc(OCc3ccc(Cl)cc3)ccc2O)c1` [compound 0200571], the remaining activity at 100 µM stood at 72%. Further, the remaining activity at 50 µM (50 uM test compound) was found to be 87%.
The corresponding values for `Cc1ccc(-c2c(C(F)(F)F)n[nH]c2-c2cc(OCc3ccc(Cl)cc3)ccc2O)cc1` [compound 0200572] are 78% and 85%.
Turning to `Oc1ccc(OCc2ccc(Cl)cc2)cc1-c1cc(C(F)(F)F)n[nH]1` [compound 0200573], the remaining activity at 100 µM is 102%.
Same read-out and setting: to `Oc1ccccc1-c1cc(C(F)(F)F)n[nH]1` [compound 0200574] belongs 107%; to `Oc1ccc(OCc2ccc(Cl)cc2)cc1-c1[nH]nc(C(F)(F)F)c1-c1ccc(F)cc1` [compound 0200575], 13%.
`Oc1ccc(OCc2ccc(Cl)cc2)cc1-c1[nH]nc(C(F)(F)F)c1-c1ccccc1Cl` [compound 0200576]: the remaining activity at 100 µM is 3%.
Consider `FC(F)(F)c1cc2n(n1)-c1ccccc1Oc1cc(OCc3ccc(Cl)cc3)ccc1-2` [compound 0200577], for which the remaining activity at 100 µM was found to be 100%.
For `NC(=O)c1cc(-c2ccc(Nc3ccc(Cl)cc3)cc2O)n[nH]1` [compound 0200677], the remaining activity at 100 µM stood at 102%.
Same read-out and setting: to `N#Cc1cc(-c2ccc(Nc3ccc(Cl)cc3)cc2O)n[nH]1` [compound 0200678] belongs 104%.
Take `Oc1cc(Nc2ccc(Cl)cc2)ccc1-c1cc(C(F)(F)F)[nH]n1` [compound 0200679]: the “Bound DNA (%) (100uM)” value is reported as 38%. In addition, the “Bound DNA (%) (50uM)” value (50 uM test compound) came out at 79%.
On to `CCc1ccc(Oc2c(-c3ccc(Nc4ccc(Cl)cc4)cc3O)n[nH]c2C(F)(F)F)cc1` [compound 0200680], for which the remaining activity at 100 µM stood at 40%. For the same compound, the remaining activity at 50 µM (50 uM test compound) is 96%.
For the compound `CCc1ccc(Oc2c(-c3ccc(Oc4ccc(Cl)cc4)cc3O)n[nH]c2C(F)(F)F)cc1` [compound 0200681], the remaining activity at 100 µM was 8%. For the setting “50 uM test compound”, the remaining activity at 50 µM is 90%.
In the case of `CCc1ccc(Oc2c(-c3ccc(O)cc3O)nn(C)c2C(F)(F)F)cc1` [compound 0200682], the “Bound DNA (%) (100uM)” value is on record as 95%. Besides, under “50 uM test compound”, the remaining activity at 50 µM turned out to be 101%.
On to `CCc1ccc(Oc2c(-c3ccccc3O)n[nH]c2C(F)(F)F)cc1` [compound 0200683], for which the remaining activity at 100 µM was 20%. For the setting “50 uM test compound”, the remaining activity at 50 µM was determined as 87%.
On to `CCc1ccc(Oc2c(-c3ccccc3O)nn(C)c2C(F)(F)F)cc1` [compound 0200684], for which the remaining activity at 100 µM stood at 101%. The remaining activity at 50 µM (50 uM test compound) was found to be 102%.
Regarding `Oc1ccccc1C1=NNC(c2ccccc2)C1` (stereo not shown) [compound 0200685], the remaining activity at 100 µM was 103%. In addition, under “50 uM test compound”, the remaining activity at 50 µM was found to be 102%.
For the compound `Oc1cc(OCc2ccc(Cl)cc2)ccc1-c1[nH]nc(C(F)(F)F)c1-c1ccc2c(c1)OCCO2` [compound 0200686], the remaining activity at 100 µM amounted to 87%. The remaining activity at 50 µM (50 uM test compound) was 98%.
The corresponding values for `Cn1nc(C(F)(F)F)cc1-c1ccc(O)cn1` [compound 0200687] are 101% and 100%.
For `Cn1nc(C(F)(F)F)cc1-c1ccc(N)cn1` [compound 0200688], the remaining activity at 100 µM was determined as 103%. Further, the remaining activity at 50 µM (50 uM test compound) was 102%.
With `Cn1nc(C(F)(F)F)cc1-c1cnc(O)cn1` [compound 0200689], the remaining activity at 100 µM was 98%. For the same compound, for the setting “50 uM test compound”, the remaining activity at 50 µM is 98%.
Regarding `Cn1nc(C(F)(F)F)cc1-c1ccc(OCc2ccc(Cl)cc2)cn1` [compound 0200690], the remaining activity at 100 µM is 95%. The remaining activity at 50 µM (50 uM test compound) turned out to be 98%.
`Cn1nc(C(F)(F)F)cc1-c1ccc(NCc2ccc(Cl)cc2)cn1` [compound 0200691]: the remaining activity at 100 µM stood at 97%. Under “50 uM test compound”, the remaining activity at 50 µM was determined as 94%.
Consider `Cn1nc(C(F)(F)F)cc1-c1cnc(OCc2ccc(Cl)cc2)cn1` [compound 0200692], for which the remaining activity at 100 µM turned out to be 89%. The remaining activity at 50 µM (50 uM test compound) was determined as 97%.
The corresponding values for `Oc1cc(Nc2ccc(Cl)c(Cl)c2)ccc1-c1cc(C(F)(F)F)[nH]n1` [compound 0200721] are 4% and 87%.
Regarding `c1ccc(COc2ccccc2-c2nn[nH]c2-c2ccccc2)cc1` [compound 0200722], the remaining activity at 100 µM was 104%.
As for `Cn1nc(C(F)(F)F)c(-c2cc(C(F)(F)F)cc(C(F)(F)F)c2)c1-c1ccc(O)cc1O` [compound 0200723], the remaining activity at 100 µM turned out to be 36%. Moreover, the remaining activity at 50 µM (50 uM test compound) amounted to 88%.
In the case of `Cn1nc(-c2ccc(O)cc2O)c(-c2cc(C(F)(F)F)cc(C(F)(F)F)c2)c1C(F)(F)F` [compound 0200724], the remaining activity at 100 µM was 105%.
Same read-out and setting: to `Oc1cc(OCc2ccc(Cl)cc2)ccc1-c1n[nH]c(C(F)(F)F)c1-c1ccc(C(F)(F)F)cc1` [compound 0200725] belongs 98%.
Regarding `Cn1nc(C(F)(F)F)c(-c2ccc(C(F)(F)F)cc2)c1-c1ccc(OCc2ccc(Cl)cc2)cc1O` [compound 0200726], the remaining activity at 100 µM amounted to 92%.
Regarding `Cn1nc(-c2ccc(OCc3ccc(Cl)cc3)cc2O)c(-c2ccc(C(F)(F)F)cc2)c1C(F)(F)F` [compound 0200727], the remaining activity at 100 µM worked out at 99%.
Consider `Oc1cc(OCc2ccc(Cl)cc2)ccc1-c1n[nH]c(C(F)(F)F)c1-c1ccc(C(F)(F)F)c(Cl)c1` [compound 0200728], for which the remaining activity at 100 µM stood at 89%.
Turning to `Cn1nc(-c2ccc(OCc3ccc(Cl)cc3)cc2O)c(-c2ccc(C(F)(F)F)c(Cl)c2)c1C(F)(F)F` [compound 0200729], the remaining activity at 100 µM turned out to be 43%. For the same compound, the remaining activity at 50 µM (50 uM test compound) amounted to 82%.
For `Oc1cc(OCc2ccc(Cl)cc2)ccc1-c1n[nH]c(C(F)(F)F)c1-c1cccc(C(F)(F)F)c1` [compound 0200730] the same measures were 77% and 93%.
As for `Cn1nc(-c2ccc(OCc3ccc(Cl)cc3)cc2O)c(-c2cccc(C(F)(F)F)c2)c1C(F)(F)F` [compound 0200731], the remaining activity at 100 µM came out at 62%. For the same compound, under “50 uM test compound”, the remaining activity at 50 µM turned out to be 77%.
In the case of `Oc1cc(OCc2ccc(Cl)cc2)ccc1-c1n[nH]c(C(F)(F)F)c1-c1ccc(Cl)c(C(F)(F)F)c1` [compound 0200732], the remaining activity at 100 µM worked out at 46%. For the same compound, the remaining activity at 50 µM (50 uM test compound) was determined as 89%.
Turning to `Cn1nc(-c2ccc(OCc3ccc(Cl)cc3)cc2O)c(-c2ccc(Cl)c(C(F)(F)F)c2)c1C(F)(F)F` [compound 0200733], the remaining activity at 100 µM was determined as 97%.
The same measure, in the same setting: to `Oc1cc(OCc2ccc(Cl)cc2)ccc1-c1n[nH]c(C(F)(F)F)c1-c1ccc(F)c(C(F)(F)F)c1` [compound 0200734] belongs 91%.
